According to patent publication US8871510B2, “Methods for generating T lymphocytes from hematopoietic stem cells” (University of Utah Research Foundation, priority 2009, dated 2014):

Key:
[1] = system: mouse lymphoid progenitor cells (c-kit+Sca-1+ lineage-neg CD90.1-neg); test: Ascorbate versus other anti-oxidants in OP9-DL1 lymphoid progenitor culture (30 days); assay type: cell-based; details: added after 14 days, culture through 30 days; anti-oxidants data not shown
Description: To establish the mechanism by which ascorbic acid promotes T cell development, we initially tested whether the anti-oxidant activity of ascorbic acid plays a key role. To test this, mouse lymphoid progenitor cells were isolated from adult bone marrow tissue by flow sorting, based on the phenotype c-kit+Sca-1+ lineage-neg CD90.1-neg, and 1000-2000 cells were plated per ml in the presence of the cytokines IL7 and Flt3L and the stromal cell line OP9-DL1. Cultures were harvested by forceful pipetting every 3-4 days and reseeded on a fresh monolayer of OP9-DL1 cells. After 14 days in culture, the cell number had expanded approximately 1000-fold (data not shown). At this point, the culture was split into two conditions, with one set of cultures supplemented with 1-ascorbic acid-2-phosphate (250 μg/ml), and the passages were continued through 30 days. […] Numbers indicate the percentage of cells with co-expression of CD4 and CD8 or CD3 and TCR.

[2] = system: mouse bone marrow-derived progenitor cells; test: Growth kinetics of bone marrow-derived progenitor cells in OP9-DL1 cultures (cytokines, ΔQ, NH4Cl); assay type: cell-based
Text: The combination of Flt3L and IL-7 promotes 10^5-fold expansion over 26 days, while addition of stem cell factor (SCF) enhances this by 5-fold. […] The growth inhibition is mainly due to the failure of selection by TCR signaling, as shown by the failure of CD4^+CD8^+ double positive (DP) cells to survive and expand.
In this Example, several important variables that are important to the successful development of T lymphocytes from bone marrow-derived cells were identified. […] Our experiments defining optimal culture conditions tell us that in order to promote T cell development from bone marrow-derived progenitor cells, a two-stage culture system is required. In the first stage, bone marrow cells are expanded under the influence of lymphoid-specifying cytokines (IL-7 and Flt3 ligand) and notch signaling delivered by OP9-DL1 cells. The expansion of the resulting pro-T cells is robust, reaching a total expansion of 10^5-fold or more (FIG. 1).
All cultures were initiated by seeding 2×10^3 FACS-sorted bone marrow progenitor cells, selected based on the surface phenotype c-kit+Sca-1+Thy-1.1-neg lineage-neg, onto a feeder layer of OP9-DL1 stromal cells. All cultures contained 1 ng/ml IL-7 and 5 ng/ml Flt3L and otherwise identical additives (10% fetal calf serum, stabilized alanyl-glutamine, antibiotics, 2-ME, supplemental amino acids, and supplemental vitamins).

[3] = system: Lymphocyte progenitor cells (KLS, Thy1.1-); test: TLR-L and ascorbic acid effects on NK and T cell development from lymphoid progenitors co-cultured with OP9-DL1; assay type: cell-based, mouse; details: SCF contaminated with LPS through production in E. coli
Description: We therefore designed experiments to evaluate the differential effects of TLR-L and ascorbic acid on NK and T cell development from lymphoid progenitors co-cultured with OP9-DL1 stromal cells. Lymphocyte progenitor cells (KLS, Thy1.1-) were sorted from adult mouse bone marrow and 1000-2000 progenitor cells were seeded per well in a 24 well plate coated with OP9-DL1 stroma. Cultures were supplemented with IL-7 (5 ng/ml), Flt3 ligand (5 ng/ml), and SCF (100 ng/ml) plus one of 5 different TLR-L (TLR1/2, TLR3, TLR4, TLR5, and a crude LPS preparation that likely contains a number of TLR-L), with or without addition of a stabilized form of ascorbic acid, phosphoascorbate at a final concentration of 250 μg/ml. Cells were passaged, counted and re-seeded with fresh media and supplements twice a week over a 30-day period. Immunophenotype and viability were evaluated by flow cytometry. Markers for T cell development included CD44, CD25, CD3, CD4, CD8, T cell receptor […] and T cell receptor γδ chains. NK cells were evaluated for the presence of NKp46, NK1.1, and DX5.

Row | Compound | Differentiating effect (CD4/CD8 and CD3/TCR co-expression) [1] | also measured
1 | O=C(O)CCCCC1CCSS1 (stereo not drawn) [alpha-lipoic acid] | not reproduced | –
2 | CC(=O)N[C@@H](CS)C(=O)O [N-acetyl-cysteine] | not reproduced | –
3 | Cl.N [NH4Cl, reference compound] | – | Expansion of the T lineage ([2]; day 15 of culture, FIG. 1B): cease to expand
4 | N[C@@H](CS)C(=O)O [1-cysteine] | not reproduced | –
5 | SCF: stem cell factor; in b105 contaminated with LPS through its production in E. coli | – | Enhancement of expansion on addition to Flt3L and IL-7 ([2]; over 26 days, FIG. 1A): 5 fold; Promotion of NK cell development in the OP9-DL1 culture system [3]: particularly effective
